pIC50: −log10 of the molar value.
Columns and labels:
[1] = target: B-Raf V600E (Homo sapiens, UniProt P15056, V600E); test: Kinase activity assay, B-Raf V600E; type: biochemical; conditions: read-out: activity toward kinase B-Raf V600E, IC50
[2] = target: MAP4K4 (Homo sapiens, UniProt O95819); test: Kinase activity assay, MAP4K4
[3] = target: Kit (Homo sapiens, UniProt P10721); test: Kinase activity assay, Kit
[4] = target: T1, TEC (Homo sapiens, UniProt P42680); test: Kinase activity assay, TEC
T1 sequence (P42680 1-631): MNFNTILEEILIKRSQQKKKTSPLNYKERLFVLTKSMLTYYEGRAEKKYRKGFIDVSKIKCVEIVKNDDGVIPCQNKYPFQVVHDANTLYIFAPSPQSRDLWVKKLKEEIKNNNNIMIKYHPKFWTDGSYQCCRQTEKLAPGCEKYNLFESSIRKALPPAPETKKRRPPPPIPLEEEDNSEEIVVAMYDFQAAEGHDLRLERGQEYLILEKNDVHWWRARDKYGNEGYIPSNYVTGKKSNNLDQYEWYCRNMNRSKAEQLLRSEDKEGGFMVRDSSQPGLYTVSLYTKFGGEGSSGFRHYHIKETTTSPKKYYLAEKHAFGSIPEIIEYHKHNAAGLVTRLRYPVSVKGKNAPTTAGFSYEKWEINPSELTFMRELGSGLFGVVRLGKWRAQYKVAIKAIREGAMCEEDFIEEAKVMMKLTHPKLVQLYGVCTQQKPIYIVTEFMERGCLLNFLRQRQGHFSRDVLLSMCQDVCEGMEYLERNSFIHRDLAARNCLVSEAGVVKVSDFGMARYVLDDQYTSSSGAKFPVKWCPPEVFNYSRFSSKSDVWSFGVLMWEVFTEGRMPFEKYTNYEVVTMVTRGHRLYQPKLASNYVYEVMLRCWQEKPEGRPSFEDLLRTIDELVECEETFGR

[5] = target: Fms (Homo sapiens, UniProt P07333); test: Kinase activity assay, Fms
[6] = target: Kdr (Homo sapiens, UniProt P35968); test: Kinase activity assay, Kdr
Sequence of Kdr (P35968 20-1356): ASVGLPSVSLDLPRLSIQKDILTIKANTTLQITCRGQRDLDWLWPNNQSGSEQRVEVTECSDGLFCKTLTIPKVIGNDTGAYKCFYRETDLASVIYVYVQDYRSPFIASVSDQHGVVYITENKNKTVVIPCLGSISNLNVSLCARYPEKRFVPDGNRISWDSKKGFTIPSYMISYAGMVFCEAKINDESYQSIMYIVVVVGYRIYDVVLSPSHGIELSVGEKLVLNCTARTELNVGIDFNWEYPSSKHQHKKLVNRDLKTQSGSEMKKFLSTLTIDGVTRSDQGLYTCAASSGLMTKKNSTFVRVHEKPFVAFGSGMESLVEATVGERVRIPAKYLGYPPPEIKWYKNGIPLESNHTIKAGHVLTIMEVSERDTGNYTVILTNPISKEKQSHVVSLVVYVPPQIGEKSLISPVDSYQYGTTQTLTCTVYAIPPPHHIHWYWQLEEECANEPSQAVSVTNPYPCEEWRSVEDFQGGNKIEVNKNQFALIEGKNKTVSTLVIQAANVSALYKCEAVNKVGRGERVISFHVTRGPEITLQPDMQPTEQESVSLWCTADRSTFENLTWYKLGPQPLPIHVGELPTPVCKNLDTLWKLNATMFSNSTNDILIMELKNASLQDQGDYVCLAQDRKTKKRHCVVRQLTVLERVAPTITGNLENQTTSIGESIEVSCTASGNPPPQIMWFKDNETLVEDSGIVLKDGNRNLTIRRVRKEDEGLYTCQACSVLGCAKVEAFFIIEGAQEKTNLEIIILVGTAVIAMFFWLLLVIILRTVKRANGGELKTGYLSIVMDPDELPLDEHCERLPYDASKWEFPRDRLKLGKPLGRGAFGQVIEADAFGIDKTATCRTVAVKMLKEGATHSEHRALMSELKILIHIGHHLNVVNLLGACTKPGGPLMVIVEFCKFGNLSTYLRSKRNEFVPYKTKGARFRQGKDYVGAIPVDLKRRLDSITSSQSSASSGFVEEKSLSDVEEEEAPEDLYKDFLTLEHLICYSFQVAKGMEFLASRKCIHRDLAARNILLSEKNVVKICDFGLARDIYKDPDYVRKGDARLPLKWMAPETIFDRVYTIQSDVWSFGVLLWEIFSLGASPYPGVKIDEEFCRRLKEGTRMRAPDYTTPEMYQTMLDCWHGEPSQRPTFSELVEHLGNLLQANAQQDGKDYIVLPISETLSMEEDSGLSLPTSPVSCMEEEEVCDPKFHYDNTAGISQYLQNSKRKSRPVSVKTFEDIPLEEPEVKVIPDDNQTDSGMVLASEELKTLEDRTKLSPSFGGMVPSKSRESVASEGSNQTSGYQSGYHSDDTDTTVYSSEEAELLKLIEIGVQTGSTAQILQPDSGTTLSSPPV

[7] = target: Btk (Homo sapiens, UniProt Q06187); test: Kinase activity assay, Btk
Sequence of Btk (Q06187 whole entry): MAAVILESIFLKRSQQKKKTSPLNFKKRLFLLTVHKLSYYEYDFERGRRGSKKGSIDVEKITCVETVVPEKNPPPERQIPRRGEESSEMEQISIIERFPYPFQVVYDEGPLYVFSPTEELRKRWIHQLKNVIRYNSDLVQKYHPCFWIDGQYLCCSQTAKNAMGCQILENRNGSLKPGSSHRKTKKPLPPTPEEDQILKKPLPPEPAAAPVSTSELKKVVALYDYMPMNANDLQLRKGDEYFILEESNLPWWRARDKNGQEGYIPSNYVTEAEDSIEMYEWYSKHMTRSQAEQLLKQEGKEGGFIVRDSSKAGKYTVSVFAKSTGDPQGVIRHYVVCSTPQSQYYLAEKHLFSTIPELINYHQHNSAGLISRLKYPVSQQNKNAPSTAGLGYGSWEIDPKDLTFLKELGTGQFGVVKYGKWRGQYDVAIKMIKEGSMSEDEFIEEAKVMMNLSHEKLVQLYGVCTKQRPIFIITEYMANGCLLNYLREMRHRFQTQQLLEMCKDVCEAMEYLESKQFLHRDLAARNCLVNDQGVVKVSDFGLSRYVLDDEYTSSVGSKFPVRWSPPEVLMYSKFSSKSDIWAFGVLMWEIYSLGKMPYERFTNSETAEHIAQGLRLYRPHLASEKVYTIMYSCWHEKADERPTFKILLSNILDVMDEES

[8] = target: Flt1 (Homo sapiens, UniProt P17948); test: Kinase activity assay, Flt1
[9] = target: B-Raf (Homo sapiens, UniProt P15056); test: Kinase activity assay, B-Raf; type: biochemical; conditions: read-out: activity toward kinase B-Raf, IC50
[10] = target: Src (Homo sapiens, UniProt P12931); test: Kinase activity assay, Src
Sequence of Src (P12931 whole entry): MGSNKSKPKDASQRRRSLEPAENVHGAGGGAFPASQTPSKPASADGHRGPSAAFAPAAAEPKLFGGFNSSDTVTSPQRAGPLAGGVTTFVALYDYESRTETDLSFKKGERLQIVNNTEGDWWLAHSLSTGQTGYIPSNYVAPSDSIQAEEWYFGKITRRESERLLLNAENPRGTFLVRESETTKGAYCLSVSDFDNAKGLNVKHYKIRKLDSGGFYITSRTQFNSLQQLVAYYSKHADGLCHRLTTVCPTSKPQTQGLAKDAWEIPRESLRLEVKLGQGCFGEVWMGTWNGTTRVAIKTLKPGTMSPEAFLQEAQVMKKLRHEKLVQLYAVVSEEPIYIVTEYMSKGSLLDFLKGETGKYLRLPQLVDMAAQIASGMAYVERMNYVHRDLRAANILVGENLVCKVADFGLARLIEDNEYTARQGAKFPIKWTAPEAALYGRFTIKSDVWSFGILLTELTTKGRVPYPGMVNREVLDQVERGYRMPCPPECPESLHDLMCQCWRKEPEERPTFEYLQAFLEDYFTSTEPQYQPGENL

[11] = target: C-Raf (Homo sapiens, UniProt P04049); test: Kinase activity assay, C-Raf
[12] = target: T2, A-Raf (Homo sapiens, UniProt P10398); test: Kinase activity assay, A-Raf
T2 sequence (P10398 1-606): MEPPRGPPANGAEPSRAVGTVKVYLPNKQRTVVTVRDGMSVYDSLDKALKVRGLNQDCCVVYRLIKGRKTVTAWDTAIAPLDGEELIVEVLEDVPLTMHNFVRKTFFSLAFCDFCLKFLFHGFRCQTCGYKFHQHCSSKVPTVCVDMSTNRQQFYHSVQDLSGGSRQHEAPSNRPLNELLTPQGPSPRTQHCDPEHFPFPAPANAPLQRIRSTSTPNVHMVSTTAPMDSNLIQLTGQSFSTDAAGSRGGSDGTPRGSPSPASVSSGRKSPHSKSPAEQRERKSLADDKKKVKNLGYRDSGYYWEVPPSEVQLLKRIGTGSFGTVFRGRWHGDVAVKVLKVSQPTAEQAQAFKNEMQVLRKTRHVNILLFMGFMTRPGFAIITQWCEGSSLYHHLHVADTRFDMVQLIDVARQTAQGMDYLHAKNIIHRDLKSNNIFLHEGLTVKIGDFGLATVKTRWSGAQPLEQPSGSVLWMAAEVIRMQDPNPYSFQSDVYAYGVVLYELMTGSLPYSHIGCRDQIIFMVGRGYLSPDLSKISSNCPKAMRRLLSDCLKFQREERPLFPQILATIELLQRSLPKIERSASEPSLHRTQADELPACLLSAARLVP

Sequence of Kit (P10721 26-976): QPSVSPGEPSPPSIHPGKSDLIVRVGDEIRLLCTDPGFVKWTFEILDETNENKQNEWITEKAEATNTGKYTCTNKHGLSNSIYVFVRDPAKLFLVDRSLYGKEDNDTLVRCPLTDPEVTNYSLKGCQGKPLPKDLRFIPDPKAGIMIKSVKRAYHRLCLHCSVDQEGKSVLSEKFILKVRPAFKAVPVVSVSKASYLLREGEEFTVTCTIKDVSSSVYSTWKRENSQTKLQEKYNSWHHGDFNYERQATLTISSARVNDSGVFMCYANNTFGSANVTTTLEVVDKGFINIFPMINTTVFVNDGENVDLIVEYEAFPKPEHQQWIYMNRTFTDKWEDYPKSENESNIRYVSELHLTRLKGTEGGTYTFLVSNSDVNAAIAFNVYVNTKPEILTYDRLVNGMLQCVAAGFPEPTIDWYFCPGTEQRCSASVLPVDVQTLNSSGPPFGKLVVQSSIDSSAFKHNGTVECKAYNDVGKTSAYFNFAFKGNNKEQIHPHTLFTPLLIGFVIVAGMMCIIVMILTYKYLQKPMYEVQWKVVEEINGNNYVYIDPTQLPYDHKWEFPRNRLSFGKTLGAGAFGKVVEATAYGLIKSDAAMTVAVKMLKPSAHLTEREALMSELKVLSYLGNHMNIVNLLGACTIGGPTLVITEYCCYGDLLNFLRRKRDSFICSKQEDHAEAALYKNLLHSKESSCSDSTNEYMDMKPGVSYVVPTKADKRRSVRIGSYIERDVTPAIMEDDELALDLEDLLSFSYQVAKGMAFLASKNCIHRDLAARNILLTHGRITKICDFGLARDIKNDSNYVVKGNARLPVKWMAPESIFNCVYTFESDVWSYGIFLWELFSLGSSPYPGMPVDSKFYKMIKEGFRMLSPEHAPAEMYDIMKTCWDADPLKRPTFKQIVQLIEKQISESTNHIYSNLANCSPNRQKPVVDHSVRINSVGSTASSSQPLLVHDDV
Sequence of MAP4K4 (O95819 whole entry): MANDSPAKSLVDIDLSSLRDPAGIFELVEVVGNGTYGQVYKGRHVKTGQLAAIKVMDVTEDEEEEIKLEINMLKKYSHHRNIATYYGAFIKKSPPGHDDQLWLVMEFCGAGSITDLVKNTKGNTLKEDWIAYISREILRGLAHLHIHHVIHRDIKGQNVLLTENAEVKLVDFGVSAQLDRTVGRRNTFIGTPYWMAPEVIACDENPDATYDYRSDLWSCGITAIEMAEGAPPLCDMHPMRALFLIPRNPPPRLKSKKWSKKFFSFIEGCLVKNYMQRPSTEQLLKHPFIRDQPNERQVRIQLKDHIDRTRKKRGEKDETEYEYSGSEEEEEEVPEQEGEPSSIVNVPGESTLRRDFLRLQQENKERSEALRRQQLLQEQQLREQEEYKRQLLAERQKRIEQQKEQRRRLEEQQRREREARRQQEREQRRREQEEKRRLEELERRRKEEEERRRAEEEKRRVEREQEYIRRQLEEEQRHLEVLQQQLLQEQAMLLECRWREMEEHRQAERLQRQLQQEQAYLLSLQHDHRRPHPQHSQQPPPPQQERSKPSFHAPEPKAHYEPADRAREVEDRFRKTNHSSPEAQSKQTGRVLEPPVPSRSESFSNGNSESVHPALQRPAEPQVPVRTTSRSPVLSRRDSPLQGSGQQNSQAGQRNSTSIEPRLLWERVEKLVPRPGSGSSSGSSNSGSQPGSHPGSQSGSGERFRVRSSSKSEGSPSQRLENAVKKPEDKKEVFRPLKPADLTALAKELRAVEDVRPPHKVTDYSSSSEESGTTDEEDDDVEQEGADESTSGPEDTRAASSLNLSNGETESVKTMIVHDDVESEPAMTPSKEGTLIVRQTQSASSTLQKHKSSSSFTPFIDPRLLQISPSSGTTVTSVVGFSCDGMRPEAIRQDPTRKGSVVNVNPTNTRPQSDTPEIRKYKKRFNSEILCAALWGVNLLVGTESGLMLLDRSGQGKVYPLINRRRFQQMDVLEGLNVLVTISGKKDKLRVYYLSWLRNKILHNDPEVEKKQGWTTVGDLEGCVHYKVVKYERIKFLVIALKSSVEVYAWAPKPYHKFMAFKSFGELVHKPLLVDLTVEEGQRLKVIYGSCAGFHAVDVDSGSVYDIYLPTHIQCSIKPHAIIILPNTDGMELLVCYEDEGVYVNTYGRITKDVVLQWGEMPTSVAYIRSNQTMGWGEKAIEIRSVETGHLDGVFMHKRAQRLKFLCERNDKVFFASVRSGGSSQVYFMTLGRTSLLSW

| pIC50 [1] | pIC50 [2] | pIC50 [3] | pIC50 [4] | pIC50 [5] | pIC50 [6] | pIC50 [7] | pIC50 [8] | pIC50 [9] | pIC50 [10] | pIC50 [11] | pIC50 [12] | SMILES |
| --- | --- | --- | --- | --- | --- | --- | --- | --- | --- | --- | --- | --- |
| ≥ 5.00 | ≥ 5.00 | ≥ 5.00 | ≥ 5.00 | ≥ 5.00 | ≥ 5.00 | ≥ 5.00 | ≥ 5.00 | ≥ 5.00 | – | – | – | Cn1cc(-c2cnc3[nH]cc(C(=O)c4c(F)ccc(NS(=O)(=O)c5cccc(OC(F)F)c5)c4Cl)c3c2)cn1 [P-2099, N-{2-Chloro-4-fluoro-3-[5-(1-methyl-1H-pyrazol-4-yl)-1H-pyrrolo[2,3-b]pyridine-3-carbonyl]-phenyl}-3-difluoromethoxy-benzenesulfonamide] |
| ≥ 5.00 | – | ≥ 5.00 | – | ≥ 5.00 | ≥ 5.00 | ≥ 5.00 | ≥ 5.00 | – | ≥ 5.00 | – | – | Cn1cc(-c2cnc3[nH]cc(C(=O)c4cc(NS(=O)(=O)c5ccc(F)cc5)ccc4F)c3c2)cn1 [P-2100, 4-Fluoro-N-{4-fluoro-3-[5-(1-methyl-1H-pyrazol-4-yl)-1H-pyrrolo[2,3-b]pyridine-3-carbonyl]-phenyl}-benzenesulfonamide] |
| ≥ 5.00 | – | ≥ 5.00 | – | ≥ 5.00 | ≥ 5.00 | – | ≥ 5.00 | ≥ 5.00 | ≥ 5.00 | ≥ 5.00 | – | CCCS(=O)(=O)Nc1ccc(F)c(C(=O)c2c[nH]c3ncc(-c4ccc(C(=O)NCC)nc4)cc23)c1F [P-2151, 5-{3-[2,6-Difluoro-3-(propane-1-sulfonylamino)-benzoyl]-1H-pyrrolo[2,3-b]pyridin-5-yl}-pyridine-2-carboxylic acid ethylamide] |
| ≥ 5.00 | – | – | – | – | ≥ 5.00 | – | ≥ 5.00 | ≥ 5.00 | ≥ 5.00 | ≥ 5.00 | ≥ 5.00 | CCCS(=O)(=O)Nc1ccc(F)c(C(=O)c2c[nH]c3ncc(-c4cnc(N(C)C)nc4)cc23)c1F [P-2196, Propane-1-sulfonic acid {3-[5-(2-dimethylamino-pyrimidin-5-yl)-1H-pyrrolo[2,3-b]pyridine-3-carbonyl]-2,4-difluoro-phenyl}-amide] |
| ≥ 5.00 | ≥ 5.00 | ≥ 5.00 | ≥ 5.00 | ≥ 5.00 | ≥ 5.00 | ≥ 5.00 | ≥ 5.00 | ≥ 5.00 | – | ≥ 5.00 | – | CCCS(=O)(=O)Nc1ccc(F)c(C(=O)c2c[nH]c3ncc(-c4cnc(OC)nc4OC)cc23)c1F [P-2199, Propane-1-sulfonic acid {3-[5-(2,4-dimethoxy-pyrimidin-5-yl)-1H-pyrrolo[2,3-b]pyridine-3-carbonyl]-2,4-difluoro-phenyl}-amide] |
| ≥ 5.00 | – | – | – | – | ≥ 5.00 | – | ≥ 5.00 | ≥ 5.00 | ≥ 5.00 | ≥ 5.00 | ≥ 5.00 | CCCS(=O)(=O)Nc1ccc(F)c(C(=O)c2c[nH]c3nccc(OC)c23)c1F [P-2210, Propane-1-sulfonic acid [2,4-difluoro-3-(4-methoxy-1H-pyrrolo[2,3-b]pyridine-3-carbonyl)-phenyl]-amide] |
| ≥ 5.00 | – | ≥ 5.00 | – | ≥ 5.00 | ≥ 5.00 | – | ≥ 5.00 | ≥ 5.00 | ≥ 5.00 | ≥ 5.00 | – | CCCS(=O)(=O)Nc1ccc(F)c(C(=O)c2c[nH]c3ncc(-c4ccc(C)nc4)cc23)c1F [P-2213, Propane-1-sulfonic acid {2,4-difluoro-3-[5-(6-methyl-pyridin-3-yl)-1H-pyrrolo[2,3-b]pyridine-3-carbonyl]-phenyl}-amide] |
| ≥ 5.00 | ≥ 5.00 | ≥ 5.00 | – | ≥ 5.00 | ≥ 5.00 | – | ≥ 5.00 | ≥ 5.00 | ≥ 5.00 | ≥ 5.00 | – | CCCS(=O)(=O)Nc1ccc(F)c(C(=O)c2c[nH]c3ncc(-c4ccc(OCCO)nc4)cc23)c1F [P-2215, Propane-1-sulfonic acid (2,4-difluoro-3-{5-[6-(2-hydroxy-ethoxy)-pyridin-3-yl]-1H-pyrrolo[2,3-b]pyridine-3-carbonyl}-phenyl)-amide] |
| ≥ 5.00 | – | ≥ 5.00 | – | ≥ 5.00 | ≥ 5.00 | – | ≥ 5.00 | ≥ 5.00 | ≥ 5.00 | ≥ 5.00 | – | CCCS(=O)(=O)Nc1ccc(F)c(C(=O)c2c[nH]c3ncc(-c4ccc(OCCCN(CC)CC)nc4)cc23)c1F [P-2216, Propane-1-sulfonic acid (3-{5-[6-(3-diethylamino-propoxy)-pyridin-3-yl]-1H-pyrrolo[2,3-b]pyridine-3-carbonyl}-2,4-difluoro-phenyl)-amide] |
| ≥ 5.00 | – | ≥ 5.00 | ≥ 5.00 | ≥ 5.00 | ≥ 5.00 | ≥ 5.00 | ≥ 5.00 | ≥ 5.00 | ≥ 5.00 | – | – | CC(C)CS(=O)(=O)Nc1ccc(F)c(C(=O)c2c[nH]c3ncc(-c4cnn(C)c4)cc23)c1F [P-2299, 2-Methyl-propane-1-sulfonic acid {2,4-difluoro-3-[5-(1-methyl-1H-pyrazol-4-yl)-1H-pyrrolo[2,3-b]pyridine-3-carbonyl]-phenyl}-amide] |
| ≥ 5.00 | ≥ 5.00 | ≥ 5.00 | ≥ 5.00 | ≥ 5.00 | ≥ 5.00 | – | ≥ 5.00 | ≥ 5.00 | – | ≥ 5.00 | – | CCCCS(=O)(=O)Nc1ccc(F)c(C(=O)c2c[nH]c3ncc(-c4cnn(C)c4)cc23)c1Cl [P-2430, Butane-1-sulfonic acid {2-chloro-4-fluoro-3-[5-(1-methyl-1H-pyrazol-4-yl)-1H-pyrrolo[2,3-b]pyridine-3-carbonyl]-phenyl}-amide] |
| ≥ 5.00 | ≥ 5.00 | ≥ 5.00 | ≥ 5.00 | ≥ 5.00 | ≥ 5.00 | ≥ 5.00 | ≥ 5.00 | ≥ 5.00 | ≥ 5.00 | ≥ 5.00 | – | CCCCS(=O)(=O)Nc1ccc(F)c(C(=O)c2c[nH]c3ncc(-c4cnn(C)c4)cc23)c1 [P-2432, Butane-1-sulfonic acid {4-fluoro-3-[5-(1-methyl-1H-pyrazol-4-yl)-1H-pyrrolo[2,3-b]pyridine-3-carbonyl]-phenyl}-amide] |
| ≥ 5.00 | ≥ 5.00 | ≥ 5.00 | ≥ 5.00 | ≥ 5.00 | ≥ 5.00 | ≥ 5.00 | ≥ 5.00 | ≥ 5.00 | ≥ 5.00 | ≥ 5.00 | – | Cn1cc(-c2cnc3[nH]cc(C(=O)c4cc(NS(=O)(=O)C5CCCCC5)ccc4F)c3c2)cn1 [P-2434, Cyclohexanesulfonic acid {4-fluoro-3-[5-(1-methyl-1H-pyrazol-4-yl)-1H-pyrrolo[2,3-b]pyridine-3-carbonyl]-phenyl}-amide] |
| ≥ 5.00 | ≥ 5.00 | ≥ 5.00 | ≥ 5.00 | ≥ 5.00 | ≥ 5.00 | ≥ 5.00 | ≥ 5.00 | – | ≥ 5.00 | – | – | Cn1cc(-c2cnc3[nH]cc(C(=O)c4cccc(NS(=O)(=O)C5CCCCC5)c4)c3c2)cn1 [P-2457, Cyclohexanesulfonic acid {3-[5-(1-methyl-1H-pyrazol-4-yl)-1H-pyrrolo[2,3-b]pyridine-3-carbonyl]-phenyl}-amide] |
